The record followed here is ChEMBL document CHEMBL4342426, “Structure-activity relationship of 4-azaindole-2-piperidine derivatives as agents against Trypanosoma cruzi” (Bioorg Med Chem Lett, 2020).

The test system of one data set is Macrophage. As to the kind of experiment: cells. The settings on record: Mus musculus, 72 h.
A short description of data set [1]: in vitro. The settings on record: human, liver microsomes.
Description: Metabolic stability in human liver microsomes assessed as intrinsic clearance at 0.5 uM incubated for 30 mins by LC-MS/MS analysis
Data set [2] is described as follows: in vitro. The settings on record: human, MRC5 SV2 cells.
Description: Selectivity index, ratio of IC50 for human MRC5 SV2 cells to IC50 for Trypanosoma cruzi Tulahuen CL2 amastigotes infected in human MRC5 SV2 cells
In a further data set the test system is Trypanosoma brucei. As to the kind of experiment: microbe, parasite or virus in culture. The following applies: Squib 427, 72 h.
A further data set concerns Leishmania infantum. The data set is described as follows: microbe, parasite or virus in culture. The following applies: for IC50: MHOM/MA(BE)/67/ITMAP263, 120 h; for IC90: MHOM/MA(BE)/67/ITMAP263, in Mus musculus, 120 h.
The nature of data set [3]: in vitro. The following applies: human, MRC5 SV2 cells. This is another data set of the same source.
Description: Cytotoxicity against human MRC5 SV2 cells assessed as reduction in cell viability incubated for 3 days by fluorimetry
Data set [4] relates to Trypanosoma brucei rhodesiense. The data set is described as follows: microbe, parasite or virus in culture. The following applies: STIB900, 72 h.
Description: Antiprotozoal activity against Trypanosoma brucei rhodesiense STIB900 trypomastigotes incubated for 72 hrs by resazurin dye based fluorimetric analysis
The next data set is described as follows: cells. The settings on record: Homo sapiens, MRC-5 SV2, 72 h.
A short description of data set [5]: in vitro. The settings on record: human, MRC5 SV2 cells. This is another data set of the same source.
Description: Selectivity index, ratio of IC50 for human MRC5 SV2 cells to IC50 for Trypanosoma brucei rhodesiense STIB900 trypomastigotes
The nature of data set [6]: in vitro. The settings on record: mouse, peritoneal macrophages.
Description: (§1) Cytotoxicity against mouse peritoneal Macrophage cells assessed as reduction in cell viability incubated for 3 days by fluorimetry
The nature of data set [7]: in vitro. The following applies: mouse, liver microsomes.
Description: Metabolic stability in mouse liver microsomes assessed as fraction unbound at 0.5 uM incubated for 30 mins by LC-MS/MS analysis
For a further data set, the system named is Trypanosoma cruzi. The data set is described as follows: microbe, parasite or virus in culture. The following applies: Tulahuen CL2, MRC-5 SV2, 168 h.
Data set [8] can be described thus: in vitro. The following applies: PAMPA. In general terms: In PAMPA a lipid-coated filter parts donor from acceptor wells.
Description: Effective permeability of compound by PAMPA assay
A short description of data set [9]: in vitro. The settings on record: mouse, liver microsomes. The source holds these as a separate data set. On the technique in general: Liver microsomes are a subcellular fraction often used to study metabolism.
Description: Metabolic stability in mouse liver microsomes assessed as intrinsic clearance at 0.5 uM incubated for 30 mins by LC-MS/MS analysis
A short description of data set [10]: physchem. The settings on record: buffer, pH 7.4.
Description: Lipophilicity, logD of compound at pH 7.4 by HPLC analysis
A short description of data set [11]: in vitro. The following applies: mouse, peritoneal macrophages. The source holds these as a separate data set.
Description: Selectivity index, ratio of IC50 for mouse peritoneal macrophage to IC50 for Leishmania infantum MHOM/MA(BE)/67/ITMAP263 infected in mouse peritoneal macrophage
Data set [12] is described as follows: in vitro. The settings on record: human, MRC5 SV2 cells. This is another data set of the same source.
Description: Selectivity index, ratio of IC50 for human MRC5 SV2 cells to IC50 for Trypanosoma brucei Squib 427
Data set [13] in a line: in vitro. The following applies: dog, MDCK.
A short description of data set [14]: physchem. The settings on record: PBS buffer, pH 7.4.
Description: Kinetic solubility of compound in PBS buffer at pH 7.4
A short description of data set [15]: in vitro. The settings on record: dog, MDCK. This is another data set of the same source.
Description: Apparent permeability across basolateral to apical side in MDCK cells
The nature of data set [16]: physchem. The following applies: PBS buffer, pH 2.
Description: Kinetic solubility of compound in PBS buffer at pH 2

Values after ≈ are worked out from the molar mass of the structure shown. Where only a bound is given, the exact number is not on record here.

Description for Leishmania infantum: Antileishmanial activity against amastigote stage of Leishmania infantum MHOM/MA(BE)/67/ITMAP263 infected in mouse peritoneal macrophage assessed as parasite growth inhibition incubated for 5 days by Giemsa staining based assay
Description for Macrophage: as §1
Description for Trypanosoma cruzi: Antitrypanosomal activity against Trypanosoma cruzi Tulahuen CL2 amastigotes infected in human MRC5 SV2 cells incubated for 7 days by chlorophenol red beta-D-galactopyranoside substrate based spectrophotometric assay

As to `O=C(c1cc(C2CC2)no1)N1CCCC(c2cc3ncccc3[nH]2)C1` (stereo not given), the IC50 (usually the concentration at which inhibition is half-maximal) in the data set with Macrophage came to 64 µM; with Trypanosoma brucei, 64 µM; in the data set on Leishmania infantum, 37.1 µM; in [4] it was 41.9 µM; in “cells”, 64 µM; in the data set with Trypanosoma cruzi it was 4.05 µM. The CLint scaled (in general, the capacity of the preparation to metabolise the compound, expressed as a volume cleared per time) at 0.5 h, 0.5 µM was 39.5 mL/min/kg in the data set “in vitro [1]” and 1610 mL/min/kg in “in vitro [9]”. Further, the figures for the intrinsic clearance (microsomal CLint) at 0.5 h, 0.5 µM in the data set “in vitro [1]” and in the data set “in vitro [9]” were 33.8 µL/min/mg and 467 µL/min/mg, respectively. Besides, the selectivity ratio in the data set “in vitro [2]” stood at 15.8; in the data set “in vitro [5]”, 1.56; in “in vitro [11]”, 1.73. The IC90 (in general, the point of the concentration-response curve where the effect stands at 90%) amounted to 64 µM in the data set on Trypanosoma brucei, 64 µM in the data set on Leishmania infantum, 64 µM in data set [4] and 13.8 µM with Trypanosoma cruzi. Further, the IC90 at 72 h in “in vitro [3]” and in “in vitro [6]” was 64 µM throughout. Also, the fraction unbound (usually free concentration divided by total concentration) at 0.5 h, 0.5 µM in “in vitro [7]” was determined as 0.926. Besides, the Papp (as a rule, a coefficient for how fast a substance crosses the barrier) in “in vitro [8]” came out at 3.17 ×10⁻⁶ cm/s. The logD – broadly, the decadic logarithm of the distribution of all forms, ionised or not, between an organic phase and buffer at a given pH – in the data set “physchem [10]” turned out to be 2.86.
Consider `O=C(c1ccc(F)cc1)N1CCCC(c2cc3ncc(Cl)cc3[nH]2)C1` (stereo not given), for which the IC50 with Macrophage was 64 µM; in the data set on Trypanosoma brucei it was 16.3 µM; in the data set on Leishmania infantum, 18.5 µM; in data set [4] it was 5.82 µM; in “cells” it was 34.9 µM; in the data set with Trypanosoma cruzi it was 28.8 µM. The CLint scaled at 0.5 h, 0.5 µM in the data set “in vitro [1]” is 62.2 mL/min/kg; in the data set “in vitro [9]”, 970 mL/min/kg. For the same compound, the microsomal CLint – broadly, the capacity of the preparation to metabolise the compound, expressed as a volume cleared per time – at 0.5 h, 0.5 µM in the data set “in vitro [1]” is 44.6 µL/min/mg; in “in vitro [9]”, 235 µL/min/mg. Also, the selectivity ratio turned out to be 1.2 in “in vitro [2]”, 5.94 in “in vitro [5]”, 2.16 in “in vitro [12]” and 1.9 in “in vitro [11]”. Besides, the IC90 came out at 32.4 µM in the data set with Trypanosoma brucei, 50.4 µM in the data set with Leishmania infantum, 13.9 µM in data set [4] and 59.5 µM in the data set on Trypanosoma cruzi. For the same compound, the IC90 at 72 h in the data set “in vitro [3]” and in the data set “in vitro [6]” was 64 µM each time. The fraction unbound at 0.5 h, 0.5 µM in “in vitro [7]” is 0.775. Moreover, the Papp in “in vitro [8]” stood at 10.6 ×10⁻⁶ cm/s. In addition, the logD in “physchem [10]” came out at 3.82.
As to `CN(C(=O)c1ccccc1)c1cccc(-c2cc3ncccc3[nH]2)c1`, the IC50 was determined as 45.3 µM with Macrophage; 31.9 µM in the data set with Trypanosoma brucei; 37.4 µM with Leishmania infantum; 9.02 µM in data set [4]; 26.1 µM in the data set “cells”; 7.25 µM with Trypanosoma cruzi. Also, the CLint scaled at 0.5 h, 0.5 µM in “in vitro [1]” is 83.7 mL/min/kg; in “in vitro [9]”, 5840 mL/min/kg. In addition, the microsomal CLint at 0.5 h, 0.5 µM is 50.6 µL/min/mg in the data set “in vitro [1]” and 1200 µL/min/mg in the data set “in vitro [9]”. Further, the selectivity ratio in “in vitro [2]” came to 3.59; in the data set “in vitro [5]”, 2.89; in “in vitro [12]”, 0.849; in the data set “in vitro [11]”, 0.707. The IC90 in the data set with Trypanosoma brucei came to 59.1 µM; in the data set on Leishmania infantum, 60.5 µM; in data set [4] it was 35.5 µM; in the data set with Trypanosoma cruzi, 64 µM. Also, the IC90 at 72 h in the data set “in vitro [3]” was found to be 60.9 µM; in “in vitro [6]” it was 59.7 µM. This compound also gave a fraction unbound at 0.5 h, 0.5 µM in “in vitro [7]” of 0.653. The compound further displayed a Papp in the data set “in vitro [8]” of 2.78 ×10⁻⁶ cm/s. For the same compound, the logD in the data set “physchem [10]” stood at 3.3.
On to `O=C(c1ccccc1)N1CCCC(c2cn3nc(Cl)ccc3n2)C1` (stereo not given), for which the IC50 with Macrophage was found to be 64 µM; in the data set with Trypanosoma brucei it was 47.7 µM; in the data set on Leishmania infantum, 64 µM; in data set [4] it was 7.81 µM; in the data set “cells”, 64 µM; in the data set on Trypanosoma cruzi it was 64 µM. Besides, the CLint scaled at 0.5 h, 0.5 µM was above 61.7 mL/min/kg in the data set “in vitro [1]” and above 772 mL/min/kg in “in vitro [9]”. Also, the microsomal CLint at 0.5 h, 0.5 µM in the data set “in vitro [1]” stood at 56.9 µL/min/mg; in “in vitro [9]”, 242 µL/min/mg. Also, the IC90 with Trypanosoma brucei stood at 64 µM; in the data set on Leishmania infantum, 64 µM; in data set [4], 14.5 µM; with Trypanosoma cruzi it was 64 µM. In addition, the IC90 at 72 h in the data set “in vitro [3]” and in “in vitro [6]” was 64 µM throughout. Moreover, the selectivity ratio was determined as 8.19 in “in vitro [5]” and 1.37 in the data set “in vitro [12]”. Further, the Papp in “in vitro [8]” turned out to be 23.6 ×10⁻⁶ cm/s. In addition, in the data set “physchem [10]”, the log distribution coefficient (logD) came to 3.18.
As to `O=C(c1cc(C(F)(F)F)no1)N1CCCC(c2cc3nc(NCc4ccccc4)ccc3[nH]2)C1` (stereo not given), the IC50 in the data set with Macrophage turned out to be 22.6 µM; with Trypanosoma brucei it was 7.87 µM; in the data set on Leishmania infantum, 6.34 µM; in data set [4], 4.97 µM; in “cells” it was 6.91 µM; in the data set on Trypanosoma cruzi it was 2.14 µM. The compound also showed a CLint scaled at 0.5 h, 0.5 µM in the data set “in vitro [1]” of 1870 mL/min/kg. Also, the intrinsic clearance (microsomal CLint) at 0.5 h, 0.5 µM in “in vitro [1]” is 149 µL/min/mg. Besides, the selectivity ratio in “in vitro [2]” was determined as 3.23; in “in vitro [5]”, 1.4; in the data set “in vitro [12]”, 0.894; in “in vitro [11]”, 1.07. Besides, the IC90 with Trypanosoma brucei stood at 14.8 µM; in the data set on Leishmania infantum it was 23.6 µM; in data set [4], 13 µM; in the data set on Trypanosoma cruzi, 64 µM. Besides, the concentration for an effect of 90% (IC90) at 72 h was 13.6 µM in “in vitro [3]” and 29.9 µM in the data set “in vitro [6]”. In addition, the unbound share (fraction unbound) at 0.5 h, 0.5 µM in the data set “in vitro [7]” was found to be 0.0857. Moreover, the Papp in the data set “in vitro [8]” was 0.239 ×10⁻⁶ cm/s. Also, the logD in “physchem [10]” was determined as 4.4.
Consider `CC(C)c1cc(C(=O)N2CCCC(c3cc4ncccc4[nH]3)C2)on1` (stereo not given), for which the IC50 with Macrophage is 32 to 64 µM; with Trypanosoma brucei it was 32 to 55.6 µM; in the data set with Leishmania infantum, 32 to 64 µM; in data set [4], 32 to 38.1 µM; in the data set “cells”, 64 µM; in the data set on Trypanosoma cruzi, 2.9 to 3.88 µM. In the data set “in vitro [13]”, the Papp A→B (usually how fast a substance crosses the layer from the apical side) was determined as 29.4 ×10⁻⁶ cm/s. The values for the CLint scaled at 0.5 h, 0.5 µM in the data set “in vitro [1]” and in the data set “in vitro [9]” were 67.8 mL/min/kg and 1600 mL/min/kg, respectively. The intrinsic metabolic clearance (microsomal CLint) at 0.5 h, 0.5 µM in “in vitro [1]” is 37 µL/min/mg; in “in vitro [9]”, 560 µL/min/mg. In “in vitro [2]”, the selectivity ratio fell in the range of 8.25 to 22.1. The IC90 in the data set with Trypanosoma brucei was in the range of 32 to 64 µM; in the data set with Leishmania infantum, 32 to 64 µM; in data set [4], 32 to 58.7 µM; with Trypanosoma cruzi it was 7.61 to 24.3 µM. For the same compound, the IC90 at 72 h in “in vitro [3]” is 64 µM; in the data set “in vitro [6]” it was 32 to 64 µM. Further, the solubility (kinetic) (commonly solubility judged after dilution from a stock solution rather than from solid) in “physchem [14]” was 60.4 µg/mL (≈ 178 µM); in “physchem [16]” it was above 67.3 µg/mL. Also, in “in vitro [15]”, the Papp B→A (commonly the apparent permeability from the basolateral to the apical side of a cell layer) is 33.2 ×10⁻⁶ cm/s.
Consider `CC(C)c1cc(C(=O)N2CC=C(c3cc4ncccc4[nH]3)CC2)on1`, for which the 50% inhibitory concentration (IC50) in the data set with Macrophage was 64 µM; in the data set with Trypanosoma brucei, 36.7 to 38.7 µM; with Leishmania infantum it was 27.9 to 41.6 µM; in data set [4], 7.97 to 15.5 µM; in the data set “cells” it was 64 µM; in the data set on Trypanosoma cruzi it was 2.01 to 2.12 µM. Further, in “in vitro [13]”, the Papp A→B came to 14.6 ×10⁻⁶ cm/s. Also, the CLint scaled at 0.5 h, 0.5 µM was 119 mL/min/kg in the data set “in vitro [1]” and 2650 mL/min/kg in “in vitro [9]”. The microsomal CLint at 0.5 h, 0.5 µM in the data set “in vitro [1]” is 23 to 59.2 µL/min/mg; in “in vitro [9]”, 398 to 446 µL/min/mg. Besides, the selectivity ratio is 30.1 to 31.8 in “in vitro [2]”, 4.14 to 8.02 in “in vitro [5]”, 1.74 in the data set “in vitro [12]” and 2.32 in “in vitro [11]”. Besides, the IC90 is 58.8 to 63.5 µM in the data set on Trypanosoma brucei, 36.4 to 49.5 µM in [4] and 3.79 to 15.4 µM in the data set on Trypanosoma cruzi. Also, the IC90 at 72 h in the data set “in vitro [3]” and in “in vitro [6]” was 64 µM throughout. The kinetic solubility is 10.4 µg/mL (≈ 31 µM) in the data set “physchem [14]” and above 67.3 µg/mL in “physchem [16]”. Further, the Papp B→A in the data set “in vitro [15]” was 15.3 ×10⁻⁶ cm/s. Also, the Papp in “in vitro [8]” is 1.54 ×10⁻⁶ cm/s. The same compound registered a logD in the data set “physchem [10]” of 3.23.
